This passage reports mutagenic call results from PubChem BioAssay AID1259407 (Chemical Carcinogenesis Research Information System (CCRIS), 2018).

The structures appear in SMILES notation. Active and inactive are the calls of the source. How the calls were made is not given here.

In the data set the test system is CCRIS mutagenicity, Ames/micronucleus/aberration tests. Kind of data set: CCRIS mutagenicity studies.
Setting [1] is: Test System: AMES SALMONELLA TYPHIMURIUM, Strain/Indicator: TA98, Metabolic Activation: NONE, Method: PREINCUBATION
Where [2] appears, read: Test System: AMES SALMONELLA TYPHIMURIUM, Strain/Indicator: TA100, Metabolic Activation: NONE, Method: PREINCUBATION
Setting [3] is: Test System: AMES SALMONELLA TYPHIMURIUM, Strain/Indicator: TA1535, Metabolic Activation: NONE, Method: PREINCUBATION
[4] abbreviates: Test System: AMES SALMONELLA TYPHIMURIUM, Strain/Indicator: TA1537, Metabolic Activation: NONE, Method: PREINCUBATION

On to `CNc1ccccc1`, for which the mutagenic call by setting is: (Test System: AMES SALMONELLA TYPHIMURIUM, Strain/Indicator: TA97, Metabolic Activation: HAMSTER, LIVER, S-9, AROCLOR 1254 (10%), Method: PREINCUBATION) “inactive; negative”; (Test System: AMES SALMONELLA TYPHIMURIUM, Strain/Indicator: TA97, Metabolic Activation: HAMSTER, LIVER, S-9, AROCLOR 1254 (30%), Method: PREINCUBATION) “inactive; negative”; (Test System: AMES SALMONELLA TYPHIMURIUM, Strain/Indicator: TA97, Metabolic Activation: NONE, Method: PREINCUBATION) “inactive; negative”; (Test System: AMES SALMONELLA TYPHIMURIUM, Strain/Indicator: TA97, Metabolic Activation: RAT, LIVER, S-9, AROCLOR 1254 (10%), Method: PREINCUBATION) “inactive; negative”; (Test System: AMES SALMONELLA TYPHIMURIUM, Strain/Indicator: TA97, Metabolic Activation: RAT, LIVER, S-9, AROCLOR 1254 (30%), Method: PREINCUBATION) “inactive; negative”; (Test System: AMES SALMONELLA TYPHIMURIUM, Strain/Indicator: TA98, Metabolic Activation: HAMSTER, LIVER, S-9, AROCLOR 1254 (10%), Method: PREINCUBATION) “inactive; negative”. Besides, the mutagenic call is, setting by setting: (Test System: AMES SALMONELLA TYPHIMURIUM, Strain/Indicator: TA98, Metabolic Activation: HAMSTER, LIVER, S-9, AROCLOR 1254 (30%), Method: PREINCUBATION) “inactive; negative”; (Test System: AMES SALMONELLA TYPHIMURIUM, Strain/Indicator: TA98, Metabolic Activation: HAMSTER, LIVER, S-9, SODIUM PHENOBARBITAL AND 5,6-BENZOFLAVONE, Method: PREINCUBATION) “inactive; negative”; under setting [1], “inactive; negative”; (Test System: AMES SALMONELLA TYPHIMURIUM, Strain/Indicator: TA98, Metabolic Activation: RAT, LIVER, S-9, AROCLOR 1254 (10 OR 30%), Method: PREINCUBATION) “inactive; negative”; (Test System: AMES SALMONELLA TYPHIMURIUM, Strain/Indicator: TA100, Metabolic Activation: HAMSTER, LIVER, S-9, AROCLOR 1254 (10%), Method: PREINCUBATION) “inactive; negative”; (Test System: AMES SALMONELLA TYPHIMURIUM, Strain/Indicator: TA100, Metabolic Activation: HAMSTER, LIVER, S-9, AROCLOR 1254 (30%), Method: PREINCUBATION) “inactive; negative”. Moreover, the mutagenic call runs as follows: (Test System: AMES SALMONELLA TYPHIMURIUM, Strain/Indicator: TA100, Metabolic Activation: HAMSTER, LIVER, S-9, SODIUM PHENOBARBITAL AND 5,6-BENZOFLAVONE, Method: PREINCUBATION) “inactive; negative”; under setting [2], “inactive; negative”; (Test System: AMES SALMONELLA TYPHIMURIUM, Strain/Indicator: TA100, Metabolic Activation: RAT, LIVER, S-9, AROCLOR 1254 (10 OR 30%), Method: PREINCUBATION) “inactive; negative”; (Test System: AMES SALMONELLA TYPHIMURIUM, Strain/Indicator: TA102, Metabolic Activation: HAMSTER, LIVER, S-9, SODIUM PHENOBARBITAL AND 5,6-BENZOFLAVONE, Method: PREINCUBATION) “inactive; negative”; (Test System: AMES SALMONELLA TYPHIMURIUM, Strain/Indicator: TA102, Metabolic Activation: NONE, Method: PREINCUBATION) “inactive; negative”; (Test System: AMES SALMONELLA TYPHIMURIUM, Strain/Indicator: TA104, Metabolic Activation: HAMSTER, LIVER, S-9, SODIUM PHENOBARBITAL AND 5,6-BENZOFLAVONE, Method: PREINCUBATION) “inactive; negative”. Moreover, the mutagenic call runs as follows: (Test System: AMES SALMONELLA TYPHIMURIUM, Strain/Indicator: TA104, Metabolic Activation: NONE, Method: PREINCUBATION) “inactive; negative”; (Test System: AMES SALMONELLA TYPHIMURIUM, Strain/Indicator: TA1535, Metabolic Activation: HAMSTER, LIVER, S-9, AROCLOR 1254 (10%), Method: PREINCUBATION) “inactive; negative”; (Test System: AMES SALMONELLA TYPHIMURIUM, Strain/Indicator: TA1535, Metabolic Activation: HAMSTER, LIVER, S-9, AROCLOR 1254 (30%), Method: PREINCUBATION) “inactive; negative”; (Test System: AMES SALMONELLA TYPHIMURIUM, Strain/Indicator: TA1535, Metabolic Activation: HAMSTER, LIVER, S-9, SODIUM PHENOBARBITAL AND 5,6-BENZOFLAVONE, Method: PREINCUBATION) “inactive; negative”; under setting [3], “inactive; negative”; (Test System: AMES SALMONELLA TYPHIMURIUM, Strain/Indicator: TA1535, Metabolic Activation: RAT, LIVER, S-9, AROCLOR 1254 (10 OR 30%), Method: PREINCUBATION) “inactive; negative”. In addition, the mutagenic call (Test System: AMES SALMONELLA TYPHIMURIUM, Strain/Indicator: TA1537, Metabolic Activation: HAMSTER, LIVER, S-9, SODIUM PHENOBARBITAL AND 5,6-BENZOFLAVONE, Method: PREINCUBATION) is “inactive; negative”; the mutagenic call under setting [4] is “inactive; negative”; the mutagenic call (Test System: E. COLI, Strain/Indicator: WP2UVRA/PKM101, Metabolic Activation: HAMSTER, LIVER, S-9, SODIUM PHENOBARBITAL AND 5,6-BENZOFLAVONE, Method: PREINCUBATION) was “inactive; negative”; the mutagenic call (Test System: E. COLI, Strain/Indicator: WP2UVRA/PKM101, Metabolic Activation: NONE, Method: PREINCUBATION) is “inactive; negative”; the mutagenic call (Test System: E. COLI, Strain/Indicator: WP2UVRA, Metabolic Activation: HAMSTER, LIVER, S-9, SODIUM PHENOBARBITAL AND 5,6-BENZOFLAVONE, Method: PREINCUBATION) is “inactive; negative”; the mutagenic call (Test System: E. COLI, Strain/Indicator: WP2UVRA, Metabolic Activation: NONE, Method: PREINCUBATION) was “inactive; negative”. For the same compound, the mutagenic call (Test System: UDS RODENT HEPATOCYTES, Strain/Indicator: THY INCORP (NON-S-PHASE), Metabolic Activation: NONE, Method: AUTORADIOGRAPHY) is “inactive; negative”.

Take `O=[N+]([O-])/C=C/c1ccco1`: the mutagenic call is, setting by setting: (End Point: IN VITRO MICRONUCLEUS, Test System: HUMAN LYMPHOCYTES, Metabolic Activation: NONE) “inactive; negative”; (End Point: IN VITRO MICRONUCLEUS, Test System: HUMAN LYMPHOCYTES, Metabolic Activation: S-9) “inactive; negative”; (End Point: IN VIVO MICRONUCLEUS, Test System: BONE MARROW, Species: MOUSE, Strain/Sex: CD-1/MALE, Route: INTRAPERITONEAL) “inactive; negative”; under setting [1], “inactive; negative”.

Turning to `CC(Cl)CCCC(Cl)CCCC(Cl)CCCC(Cl)CCCC(Cl)CCCC(Cl)CCCl` (centres undefined), the mutagenic call reads like this: (End Point: IN VITRO CHROMOSOMAL ABERRATIONS, Test System: CHO CELLS, Metabolic Activation: NONE) “active; positive; oily droplets formed at all doses”; (End Point: IN VITRO CHROMOSOMAL ABERRATIONS, Test System: CHO CELLS, Metabolic Activation: RAT, LIVER, S-9, AROCLOR 1254) “inactive; negative; oily droplets formed at all doses”; (Test System: AMES SALMONELLA TYPHIMURIUM, Strain/Indicator: TA98, Metabolic Activation: HAMSTER, LIVER, S-9, AROCLOR 1254, Method: PREINCUBATION) “inactive; negative”; under setting [1], “inactive; negative”; (Test System: AMES SALMONELLA TYPHIMURIUM, Strain/Indicator: TA98, Metabolic Activation: RAT, LIVER, S-9, AROCLOR 1254, Method: PREINCUBATION) “inactive; negative”; (Test System: AMES SALMONELLA TYPHIMURIUM, Strain/Indicator: TA100, Metabolic Activation: HAMSTER, LIVER, S-9, AROCLOR 1254, Method: PREINCUBATION) “inactive; negative”. Moreover, the mutagenic call was “inactive; negative” under setting [2]; “inactive; negative” (Test System: AMES SALMONELLA TYPHIMURIUM, Strain/Indicator: TA100, Metabolic Activation: RAT, LIVER, S-9, AROCLOR 1254, Method: PREINCUBATION); “inactive; negative” (Test System: AMES SALMONELLA TYPHIMURIUM, Strain/Indicator: TA1535, Metabolic Activation: HAMSTER, LIVER, S-9, AROCLOR 1254, Method: PREINCUBATION); “inactive; negative” under setting [3]; “inactive; negative” (Test System: AMES SALMONELLA TYPHIMURIUM, Strain/Indicator: TA1535, Metabolic Activation: RAT, LIVER, S-9, AROCLOR 1254, Method: PREINCUBATION); “inactive; negative” (Test System: AMES SALMONELLA TYPHIMURIUM, Strain/Indicator: TA1537, Metabolic Activation: HAMSTER, LIVER, S-9, AROCLOR 1254, Method: PREINCUBATION). Moreover, the mutagenic call reads like this: under setting [4], “inactive; negative”; (Test System: AMES SALMONELLA TYPHIMURIUM, Strain/Indicator: TA1537, Metabolic Activation: RAT, LIVER, S-9, AROCLOR 1254, Method: PREINCUBATION) “inactive; negative”.
